Assay results taken from patent US6355799B1, “Substituted benzene compounds, process for their preparation, and herbicidal and defoliant compositions containing them” (ISK Americas Incorporated, priority 1997, dated 2002).

Columns and labels:
Assay type in all cases: in vivo
[1] = system: johnsongrass (Sorghum halepense, SORHA); assay: Pre-emerge test, greenhouse herbicide activity screening; settings: phytotoxicity rating 0-100, 14 days after application
How it was run: (§1)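 Fourteen days after spraying, crop and weed injury was graded visually from 0, no effect, to 100, every plant dead. Test substances were dissolved in acetone and applied at 15–1000 g ai/ha with a flat-fan nozzle. Application was either pre-emergence, one day after sowing, or post-emergence at the 2–3 leaf stage.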

[2] = system: lambsquarters (Chenopodium album, CHEAL); assay: as above; settings: phytotoxicity rating 0-100, 14 days after application
How it was run: as §1

[3] = system: ivyleaf morningglory (Ipomoea hederacea, IPOHE); assay: as above; settings: phytotoxicity rating 0-100, 14 days after application
How it was run: as §1

[4] = system: sicklepod (Cassia obtusifolia, CASOB); assay: as above; settings: phytotoxicity rating 0-100, 14 days after application
How it was run: as §1

[5] = system: velvetleaf (Abutilon theophrasti, ABUTH); assay: as above; settings: phytotoxicity rating 0-100, 14 days after application
How it was run: as §1

[6] = system: common ragweed (Ambrosia artemisizfolia L., AMBEL); assay: as above; settings: phytotoxicity rating 0-100, 14 days after application
How it was run: as §1

[7] = system: green foxtail (Setaria viridis, SETVI); assay: as above; settings: phytotoxicity rating 0-100, 14 days after application
How it was run: as §1

[8] = system: barnyardgrass (Echinochloa crus-galli, ECHCG); assay: as above; settings: phytotoxicity rating 0-100, 14 days after application
How it was run: as §1

[9] = system: large crabgrass (Digitaria sanguinalis, DIGSA); assay: as above; settings: phytotoxicity rating 0-100, 14 days after application
How it was run: as §1

[10] = system: johnsongrass (Sorghum halepense, SORHA); assay: Post-emerge test, greenhouse herbicide activity screening; settings: post-emerge, 14 days after application, rating scale 0-100
How it was run: (§2)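 Plants grown in 10 cm pots of sandy loam mix received acetone-dissolved compounds through a moving flat-fan nozzle. Doses ranged from 15 to 1000 g ai/ha. Pre-emerge pots were seeded one day earlier, post-emerge pots 8–21 days earlier. Fourteen days on, each pot was graded 0–100 for damage.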

[11] = system: lambsquarters (Chenopodium album, CHEAL); assay: as above; settings: post-emerge, 14 days after application, rating scale 0-100
How it was run: as §2

[12] = system: redroot pigweed (Amaranthus retroflexus, AMARE); assay: as above; settings: post-emerge, 14 days after application
How it was run: as §2

[13] = system: ivyleaf morningglory (Ipomoea hederacea, IPOHE); assay: as above; settings: post-emerge, 14 days after application, rating scale 0-100
How it was run: as §2

[14] = system: sicklepod (Cassia obtusifolia, CASOB); assay: as above; settings: post-emerge, 14 days after application, rating scale 0-100
How it was run: as §2

[15] = system: velvetleaf (Abutilon theophrasti, ABUTH); assay: as above; settings: post-emerge, 14 days after application, rating scale 0-100
How it was run: as §2

[16] = system: common ragweed (Ambrosia artemisizfolia L., AMBEL); assay: as above; settings: post-emerge, 14 days after application, rating scale 0-100
How it was run: as §2

[17] = system: green foxtail (Setaria viridis, SETVI); assay: as above; settings: post-emerge, 14 days after application, rating scale 0-100
How it was run: as §2

[18] = system: barnyardgrass (Echinochloa crus-galli, ECHCG); assay: as above; settings: post-emerge, 14 days after application, rating scale 0-100
How it was run: as §2

[19] = system: large crabgrass (Digitaria sanguinalis, DIGSA); assay: as above; settings: post-emerge, 14 days after application, rating scale 0-100
How it was run: as §2

[20] = system: field corn (Zea mays L., var. Dekalb 535, CORN); assay: Post-emerge test, crop safety; settings: post-emerge, 14 days after application, rating scale 0-100
How it was run: as §1

[21] = system: upland rice (Oryza sp., var. Tebonnet, RICE); assay: Post-emerge test, crop safety; settings: post-emerge, 14 days after application, rating scale 0-100
How it was run: as §1

[22] = system: field corn (Zea mays L., var. Dekalb 535, CORN); assay: Pre-emerge test, crop safety; settings: crop damage rating 0-100, 14 days after application
How it was run: (§3)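 Sandy loam pots; pre-emerge: sown 1 d pre-spray, surface-watered after, then bottom-watered. Post-emerge: sown 8–21 d before, 2–3 leaf stage, + 0.25% v/v NIS, bottom-watered. Acetone, 187 l/ha track spray, 15–1000 g ai/ha. 0–100 injury score, day 14.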

[23] = system: upland rice (Oryza sp., var. Tebonnet, RICE); assay: Pre-emerge test, crop safety; settings: crop damage rating 0-100, 14 days after application
How it was run: as §3

[24] = system: redroot pigweed (Amaranthus retroflexus, AMARE); assay: Pre-emerge test, greenhouse herbicide activity screening; settings: phytotoxicity rating 0-100, 14 days after application
How it was run: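 Rating: 0–100 visual injury, 14 DAA. Application: acetone, 187 l/ha, 15–1000 g ai/ha, flat-fan track sprayer with nozzle 40–45 cm above soil or canopy. Post-emerge runs used 0.25% v/v surfactant on 2–3 leaf plants.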

## Cn1c(C(F)(F)F)cc(=O)n(-c2c(F)cc(Cl)c(O)c2NC(=O)c2ccc3ccccc3c2)c1=O [Compound 2-194, 2-(2,4-chloro-6-fluoro-3-hydroxy-2-naphthoylamidophenyl)-1-methyl-6-trifluoromethyl-2,4(1H, 3H)-pyrimidinedione]
[1]; 63 g ai/ha
  Pre-emerge Herbicidal Activity SORHA: 0
[1]; 250 g ai/ha
  Pre-emerge Herbicidal Activity SORHA: 0
[2]; 63 g ai/ha
  Pre-emerge Herbicidal Activity CHEAL: 40
[2]; 250 g ai/ha
  Pre-emerge Herbicidal Activity CHEAL: 85
[3]; 63 g ai/ha
  Pre-emerge Herbicidal Activity IPOHE: 0
[3]; 250 g ai/ha
  Pre-emerge Herbicidal Activity IPOHE: 20
[4]; 63 g ai/ha
  Pre-emerge Herbicidal Activity CASOB: 0
[4]; 250 g ai/ha
  Pre-emerge Herbicidal Activity CASOB: 10
[5]; 63 g ai/ha
  Pre-emerge Herbicidal Activity ABUTH: 90
[5]; 250 g ai/ha
  Pre-emerge Herbicidal Activity ABUTH: 100
[6]; 63 g ai/ha
  Pre-emerge Herbicidal Activity AMBEL: 0
[6]; 250 g ai/ha
  Pre-emerge Herbicidal Activity AMBEL: 0
[7]; 63 g ai/ha
  Pre-emerge Herbicidal Activity SETVI: 0
[7]; 250 g ai/ha
  Pre-emerge Herbicidal Activity SETVI: 20
[8]; 63 g ai/ha
  Pre-emerge Herbicidal Activity ECHCG: 0
[8]; 250 g ai/ha
  Pre-emerge Herbicidal Activity ECHCG: 0
[9]; 63 g ai/ha
  Pre-emerge Herbicidal Activity DIGSA: 0
[9]; 250 g ai/ha
  Pre-emerge Herbicidal Activity DIGSA: 10
[10]; 63 g ai/ha
  phytotoxicity rating SORHA: 0
[10]; 250 g ai/ha
  phytotoxicity rating SORHA: 10
[11]; 63 g ai/ha
  phytotoxicity rating CHEAL: 90
[11]; 250 g ai/ha
  phytotoxicity rating CHEAL: 100
[12]; 63 g ai/ha, rating scale 0-100 (0 no damage, 100 complete death)
  phytotoxicity rating AMARE: 99
[12]; 250 g ai/ha, rating scale 0-100
  phytotoxicity rating AMARE: 99
[13]; 63 g ai/ha
  phytotoxicity rating IPOHE: 95
[13]; 250 g ai/ha
  phytotoxicity rating IPOHE: 99
[14]; 63 g ai/ha
  phytotoxicity rating CASOB: 50
[14]; 250 g ai/ha
  phytotoxicity rating CASOB: 70
[15]; 63 g ai/ha
  phytotoxicity rating ABUTH: 95
[15]; 250 g ai/ha
  phytotoxicity rating ABUTH: 100
[16]; 63 g ai/ha
  phytotoxicity rating AMBEL: 95
[16]; 250 g ai/ha
  phytotoxicity rating AMBEL: 90
[17]; 63 g ai/ha
  phytotoxicity rating SETVI: 20
[17]; 250 g ai/ha
  phytotoxicity rating SETVI: 20
[18]; 63 g ai/ha
  phytotoxicity rating ECHCG: 0
[18]; 250 g ai/ha
  phytotoxicity rating ECHCG: 10
[19]; 63 g ai/ha
  phytotoxicity rating DIGSA: 0
[19]; 250 g ai/ha
  phytotoxicity rating DIGSA: 20
[20]; 63 g ai/ha
  phytotoxicity rating CORN (crop damage): 5
[20]; 250 g ai/ha
  phytotoxicity rating CORN (crop damage): 5
[21]; 63 g ai/ha
  phytotoxicity rating RICE (crop damage): 30
[21]; 250 g ai/ha
  phytotoxicity rating RICE (crop damage): 40
[22]; 63 g ai/ha
  Pre-emerge Herbicidal Activity CORN: 0
[22]; 250 g ai/ha
  Pre-emerge Herbicidal Activity CORN: 0
[23]; 63 g ai/ha
  Pre-emerge Herbicidal Activity RICE: 0
[23]; 250 g ai/ha
  Pre-emerge Herbicidal Activity RICE: 10
[24]; 63 g ai/ha
  Pre-emerge Herbicidal Activity AMARE: 75
[24]; 250 g ai/ha
  Pre-emerge Herbicidal Activity AMARE: 100
